One series deals with Methionine synthase (Homo sapiens, UniProt Q99707). As to the kind of experiment: Inhibition of MTR (unknown origin).
The subject of a further series is HepG2. As to the kind of experiment: cells. The conditions noted are these: Homo sapiens, HepG2, read-out: ED50.
Series [1] has as its target Cystic fibrosis transmembrane conductance regulator (Homo sapiens, UniProt P13569, F508DEL).
For series [2], the target named is T1, Exportin-1 (Homo sapiens, UniProt O14980). In words: Inhibition of XPO1 in human MOLT-16 cells. Type of series: cell-based.
T1 sequence (O14980 whole entry): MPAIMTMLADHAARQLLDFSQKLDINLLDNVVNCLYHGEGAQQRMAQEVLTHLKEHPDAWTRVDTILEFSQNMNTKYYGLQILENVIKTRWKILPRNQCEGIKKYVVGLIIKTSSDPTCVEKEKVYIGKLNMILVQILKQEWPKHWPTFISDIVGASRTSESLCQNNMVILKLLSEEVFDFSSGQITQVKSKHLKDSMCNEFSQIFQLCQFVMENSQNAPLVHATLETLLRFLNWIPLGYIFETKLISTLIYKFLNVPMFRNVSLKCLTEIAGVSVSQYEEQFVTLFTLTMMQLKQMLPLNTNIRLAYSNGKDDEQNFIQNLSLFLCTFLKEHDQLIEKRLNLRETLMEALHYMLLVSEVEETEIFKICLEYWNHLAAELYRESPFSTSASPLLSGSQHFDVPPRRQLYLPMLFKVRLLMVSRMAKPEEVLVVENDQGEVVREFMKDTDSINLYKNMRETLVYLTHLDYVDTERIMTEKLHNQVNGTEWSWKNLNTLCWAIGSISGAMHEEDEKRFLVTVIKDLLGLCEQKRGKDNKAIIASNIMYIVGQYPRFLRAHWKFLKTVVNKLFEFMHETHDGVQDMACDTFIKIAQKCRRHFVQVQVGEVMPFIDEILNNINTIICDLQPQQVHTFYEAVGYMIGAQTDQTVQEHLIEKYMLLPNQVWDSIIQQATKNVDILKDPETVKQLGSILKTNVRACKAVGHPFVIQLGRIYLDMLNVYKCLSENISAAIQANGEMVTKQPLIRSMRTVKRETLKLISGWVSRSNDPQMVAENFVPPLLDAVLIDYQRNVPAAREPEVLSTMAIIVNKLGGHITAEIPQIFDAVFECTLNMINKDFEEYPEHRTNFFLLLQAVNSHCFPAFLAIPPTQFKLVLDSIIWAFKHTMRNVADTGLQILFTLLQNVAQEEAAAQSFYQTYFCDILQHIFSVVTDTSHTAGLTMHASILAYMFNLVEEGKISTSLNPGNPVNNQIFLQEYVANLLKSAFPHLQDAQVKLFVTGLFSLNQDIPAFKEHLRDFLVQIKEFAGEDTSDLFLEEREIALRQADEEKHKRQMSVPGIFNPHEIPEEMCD
Series [3] deals with T1, Exportin-1. In words: Inhibition of XPO1 in human HPBALL cells. Type of series: cell-based.
The subject of another series is RS4-11. As to the kind of experiment: Antiproliferative activity against human RS4-11 cells assessed as […]. The class given is functional, cell-based.
Series [4] deals with Hepatocyte growth factor receptor (Homo sapiens, UniProt P08581). As to the kind of experiment: Inhibition of c-Met (unknown origin).
Series [5] concerns the target Isocitrate dehydrogenase [NADP], mitochondrial (Homo sapiens, UniProt P48735). In words: Inhibition of IDH2 (unknown origin).
Another series deals with HCT-116. As to the kind of experiment: Antiproliferative activity against human HCT-116 cells assessed as inhibition of cell growth. Type of series: functional, cell-based.
The target in series [6] is T2, GTPase KRas (Homo sapiens, UniProt P01116). As to the kind of experiment: Inhibition of K-Ras (unknown origin).
T2 sequence (P01116 whole entry): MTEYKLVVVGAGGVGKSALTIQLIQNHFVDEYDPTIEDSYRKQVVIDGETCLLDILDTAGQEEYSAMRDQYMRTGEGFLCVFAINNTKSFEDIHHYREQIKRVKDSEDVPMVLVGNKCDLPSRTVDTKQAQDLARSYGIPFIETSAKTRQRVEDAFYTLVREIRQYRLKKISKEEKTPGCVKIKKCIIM
The target in another series is GTPase HRas (Homo sapiens, UniProt P01112). In words: Inhibition of H-Ras (unknown origin).
GTPase HRas, sequence (P01112 whole entry): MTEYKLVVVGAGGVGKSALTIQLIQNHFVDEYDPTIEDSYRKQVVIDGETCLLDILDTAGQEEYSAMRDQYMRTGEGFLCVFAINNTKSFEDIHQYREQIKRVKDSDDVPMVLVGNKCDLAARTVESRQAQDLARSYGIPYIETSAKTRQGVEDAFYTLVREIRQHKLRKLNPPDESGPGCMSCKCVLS
A short description of series [7]: Inhibition of wild type FTase (unknown origin). Details: species or system Homo sapiens.
Series [8] relates to Mycobacterium tuberculosis. As to the kind of experiment: microbe, parasite or virus in culture.
Series [9] concerns Mycobacterium tuberculosis. As to the kind of experiment: microbe, parasite or virus in culture. The source holds these as a separate data set.
Another series concerns Brain. As to the kind of experiment: Neuroprotective activity in Wistar rat brain homogenate assessed as inhibition of lipid peroxidation incubated for 10 mins by fluorometric analysis. The class given is functional, tissue-based.
A short description of series [10]: Cytotoxicity against human HBE cells assessed as inhibition of cell growth. The class given is toxicity, cell-based.
The next series concerns Human betaherpesvirus 5. In words: Antiviral activity against HCMV infected in human NHDF cells assessed as reduction in virus plaque formation. Type of series: functional, organism-based. The conditions noted are these: Human betaherpesvirus 5, NHDF.
In series [11] the target is T2, GTPase KRas. In words: Inhibition of K-Ras in human NCI-H460 cells. The class given is cell-based.
The test system of another series is SW-620. As to the kind of experiment: cells. The conditions noted are these: Homo sapiens.
A further series deals with K562. In words: Antiproliferative activity against human K562 cells assessed as inhibition of cell growth. The class given is functional, cell-based.
Another series can be described thus: cells. The conditions noted are these: Homo sapiens, HAC15, 72 h.
Series [12] has as its target Soluble guanylate cyclase (Homo sapiens) (UniProt Q02153+O75343+P33402+Q02108). As to the kind of experiment: Stimulation of recombinant sGC (unknown origin) expressed in CHO cells assessed as formation of cGMP. Type of series: cell-based. The conditions noted are these: filed as activator.
The subject of the next series is Aorta. As to the kind of experiment: Relaxation of pre-contracted rabbit aorta. Type of series: functional, tissue-based. The conditions noted are these: Oryctolagus cuniculus.
The subject of the next series is Malme-3M. In words: Antiproliferative activity against human Malme-3M cells assessed as inhibition of cell growth. Type of series: functional, cell-based.
The target in the next series is Melanocortin receptor 4 (Rattus norvegicus, UniProt P70596). As to the kind of experiment: Inhibition of rat MC4R.
Melanocortin receptor 4, sequence (P70596 whole entry): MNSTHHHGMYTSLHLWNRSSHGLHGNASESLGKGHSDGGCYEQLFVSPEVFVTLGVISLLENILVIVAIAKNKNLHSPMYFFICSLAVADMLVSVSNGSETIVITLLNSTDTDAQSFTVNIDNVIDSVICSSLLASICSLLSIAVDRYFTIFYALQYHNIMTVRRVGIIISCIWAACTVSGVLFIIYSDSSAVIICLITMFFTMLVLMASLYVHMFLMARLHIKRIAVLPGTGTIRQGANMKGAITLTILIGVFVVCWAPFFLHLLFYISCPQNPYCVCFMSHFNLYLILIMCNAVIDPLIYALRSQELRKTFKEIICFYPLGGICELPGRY
The subject of a further series is RBL-2H3. As to the kind of experiment: Antiproliferative activity against rat RBL-2H3 cells assessed as […]. The class given is functional, cell-based.

Converted amounts (≈) assume the structure as drawn.

Methionine synthase, sequence (Q99707 whole entry): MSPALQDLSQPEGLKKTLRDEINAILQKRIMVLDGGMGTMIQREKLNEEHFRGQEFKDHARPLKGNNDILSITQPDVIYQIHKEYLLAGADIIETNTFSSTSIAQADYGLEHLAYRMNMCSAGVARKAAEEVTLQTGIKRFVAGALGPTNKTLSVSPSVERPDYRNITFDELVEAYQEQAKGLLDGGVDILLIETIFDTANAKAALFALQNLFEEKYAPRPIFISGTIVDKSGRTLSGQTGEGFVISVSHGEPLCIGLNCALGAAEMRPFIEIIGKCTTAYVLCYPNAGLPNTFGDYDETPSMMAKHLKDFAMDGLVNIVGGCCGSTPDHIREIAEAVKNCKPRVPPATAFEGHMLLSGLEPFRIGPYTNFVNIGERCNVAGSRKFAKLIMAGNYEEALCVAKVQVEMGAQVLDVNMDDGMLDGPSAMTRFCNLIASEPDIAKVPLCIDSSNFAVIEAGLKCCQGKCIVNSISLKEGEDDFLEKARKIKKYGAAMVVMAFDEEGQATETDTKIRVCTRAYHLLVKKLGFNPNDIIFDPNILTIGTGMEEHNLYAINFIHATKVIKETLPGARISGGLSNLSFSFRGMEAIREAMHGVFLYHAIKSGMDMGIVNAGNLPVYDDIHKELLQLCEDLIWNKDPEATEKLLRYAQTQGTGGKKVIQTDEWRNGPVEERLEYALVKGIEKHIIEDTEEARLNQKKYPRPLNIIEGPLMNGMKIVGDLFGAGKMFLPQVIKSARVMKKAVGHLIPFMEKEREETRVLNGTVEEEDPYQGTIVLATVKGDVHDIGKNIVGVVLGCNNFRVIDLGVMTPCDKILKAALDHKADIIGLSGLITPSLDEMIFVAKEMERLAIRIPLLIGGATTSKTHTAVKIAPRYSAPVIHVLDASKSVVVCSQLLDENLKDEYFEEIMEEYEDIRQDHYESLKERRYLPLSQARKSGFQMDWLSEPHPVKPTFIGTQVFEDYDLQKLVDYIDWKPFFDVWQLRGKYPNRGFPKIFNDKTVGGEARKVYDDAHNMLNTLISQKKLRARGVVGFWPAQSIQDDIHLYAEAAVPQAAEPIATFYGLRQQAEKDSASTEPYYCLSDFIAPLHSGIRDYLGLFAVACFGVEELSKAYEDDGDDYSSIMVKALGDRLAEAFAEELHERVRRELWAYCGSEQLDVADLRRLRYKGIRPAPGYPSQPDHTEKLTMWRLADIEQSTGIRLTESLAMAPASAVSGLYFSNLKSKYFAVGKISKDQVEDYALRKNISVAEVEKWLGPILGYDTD
Cystic fibrosis transmembrane conductance regulator, sequence (P13569 as listed by the source): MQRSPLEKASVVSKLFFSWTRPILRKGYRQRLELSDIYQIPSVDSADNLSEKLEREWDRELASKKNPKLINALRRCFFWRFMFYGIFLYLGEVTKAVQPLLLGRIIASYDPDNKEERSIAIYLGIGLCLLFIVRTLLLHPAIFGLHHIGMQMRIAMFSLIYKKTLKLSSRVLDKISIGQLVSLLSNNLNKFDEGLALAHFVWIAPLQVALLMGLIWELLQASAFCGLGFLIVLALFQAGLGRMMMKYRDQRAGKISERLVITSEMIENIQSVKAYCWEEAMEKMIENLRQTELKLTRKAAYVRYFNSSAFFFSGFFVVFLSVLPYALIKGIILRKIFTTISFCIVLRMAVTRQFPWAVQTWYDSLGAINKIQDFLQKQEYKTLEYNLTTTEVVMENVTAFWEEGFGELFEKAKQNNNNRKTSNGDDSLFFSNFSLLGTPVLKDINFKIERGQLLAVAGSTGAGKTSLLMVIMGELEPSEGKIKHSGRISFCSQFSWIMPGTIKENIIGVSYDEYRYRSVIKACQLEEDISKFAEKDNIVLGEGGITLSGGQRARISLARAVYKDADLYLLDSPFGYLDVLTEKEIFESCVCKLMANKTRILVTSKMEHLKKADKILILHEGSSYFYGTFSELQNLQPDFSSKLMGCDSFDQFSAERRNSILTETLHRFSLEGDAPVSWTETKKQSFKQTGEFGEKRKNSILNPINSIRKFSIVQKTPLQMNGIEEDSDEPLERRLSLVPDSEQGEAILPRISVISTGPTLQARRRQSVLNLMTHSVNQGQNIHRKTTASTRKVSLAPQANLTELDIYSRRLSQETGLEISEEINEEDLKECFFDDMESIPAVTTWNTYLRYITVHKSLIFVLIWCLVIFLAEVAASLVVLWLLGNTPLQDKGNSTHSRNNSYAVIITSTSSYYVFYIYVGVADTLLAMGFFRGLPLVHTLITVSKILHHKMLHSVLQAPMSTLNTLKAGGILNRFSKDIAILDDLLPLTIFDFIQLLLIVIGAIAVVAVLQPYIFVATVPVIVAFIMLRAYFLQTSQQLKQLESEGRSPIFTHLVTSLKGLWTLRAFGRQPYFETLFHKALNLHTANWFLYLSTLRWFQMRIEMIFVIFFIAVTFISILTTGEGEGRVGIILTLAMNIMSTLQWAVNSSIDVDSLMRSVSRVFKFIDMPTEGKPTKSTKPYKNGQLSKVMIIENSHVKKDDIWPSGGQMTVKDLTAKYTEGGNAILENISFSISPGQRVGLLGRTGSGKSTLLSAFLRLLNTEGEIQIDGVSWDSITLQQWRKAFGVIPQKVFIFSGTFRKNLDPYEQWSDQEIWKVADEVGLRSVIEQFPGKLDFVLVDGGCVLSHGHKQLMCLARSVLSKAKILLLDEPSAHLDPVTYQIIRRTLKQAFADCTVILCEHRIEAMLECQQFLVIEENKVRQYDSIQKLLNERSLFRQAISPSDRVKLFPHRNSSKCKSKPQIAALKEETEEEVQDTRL
Isocitrate dehydrogenase [NADP], mitochondrial, sequence (P48735 whole entry): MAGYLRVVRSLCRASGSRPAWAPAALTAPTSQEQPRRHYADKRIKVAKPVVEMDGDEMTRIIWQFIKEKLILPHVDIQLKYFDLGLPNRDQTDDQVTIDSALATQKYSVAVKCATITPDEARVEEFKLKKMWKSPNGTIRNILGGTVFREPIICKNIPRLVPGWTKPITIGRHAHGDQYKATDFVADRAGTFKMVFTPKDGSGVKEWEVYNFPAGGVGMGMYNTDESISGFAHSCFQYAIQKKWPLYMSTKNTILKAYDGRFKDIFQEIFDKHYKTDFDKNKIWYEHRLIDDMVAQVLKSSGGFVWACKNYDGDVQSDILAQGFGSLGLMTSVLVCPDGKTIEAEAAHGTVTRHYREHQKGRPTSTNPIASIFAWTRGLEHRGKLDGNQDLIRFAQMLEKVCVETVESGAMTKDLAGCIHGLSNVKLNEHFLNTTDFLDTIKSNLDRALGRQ

In general, IC50 refers to the concentration that gives 50% inhibition. For the molecule `O=C1c2ccccc2CN1C1CCN(CCC(c2ccccc2)c2ccccc2)CC1`, inhibition against Methionine synthase was half-maximal at 2.2 nM (IC50). For the same molecule, in the series on HepG2, the EC50 came to 2.2 nM. Take `O=C(c1c[nH]c2ccccc2c1=O)N(Cc1ccccc1)Cc1ccccc1`: in [1], the EC50 came out at 2.1 nM. Regarding `COc1cc(-c2ncn(/C=C\C(=O)OC(C)C)n2)cc(C(F)(F)F)c1`, the figures for the IC50 on Exportin-1 [2] and against Exportin-1 [3] were 112 nM and 16 nM, respectively. In the case of `CC1(C)CCC(c2ccc(Cl)cc2)=C(CN2CCN(c3ccc(C(=O)NS(=O)(=O)c4ccc(NCC5CCOCC5)c([N+](=O)[O-])c4)c(Oc4cnc5[nH]ccc5c4)c3)CC2)C1`, the EC50 in the series with RS4-11 was 8 nM. `Cc1[nH]c(/C=C2\C(=O)Nc3ccc(S(=O)(=O)C(C)c4c(Cl)cccc4Cl)cc32)c(C)c1C(=O)N1CCC[C@@H]1CN1CCCC1` (some centres undefined) showed an IC50 in series [4] of 9 nM.

Regarding `CC(C)(C)Nc1nc(Nc2ccccc2)nc(-c2ccccc2)n1`, the concentration for half-maximal inhibition (IC50) stood at 100 nM in [5] and 530 nM with HCT-116. With `O=C(Cc1ccncc1)N1CCN([C@H]2c3ccc(Cl)cc3CCc3cccnc32)CC1`, the values for the IC50 (against GTPase KRas [6]; at GTPase HRas; in [7]) were 5.2 nM, 1.9 nM and 490 nM, respectively. Turning to `COc1nc2ccc(Br)cc2cc1[C@@H](c1ccccc1)[C@@](O)(CCN(C)C)c1cccc2ccccc12` [BEDAQUILINE], the MIC in series [8] and in series [9] was 0.03 µg/mL (≈ 0.054 µM) in each case. For `CC1=NN(c2ccccc2)C(=O)C1` [EDARAVONE], the IC50 with Brain was 18200 nM. With `NNC(=O)c1ccncc1` [ISONIAZID], the MIC in [8] and in series [9] was 0.12 µg/mL (≈ 0.875 µM) in each case.

As to `CC(C)(C)c1cc(C(C)(C)C)c(NC(=O)c2c[nH]c3ccccc3c2=O)cc1O` [IVACAFTOR], the EC50 is 236 nM in series [10] and 25 nM in series [1].

As usually defined, the EC90 is the concentration at which the effect reaches the 90% level. Consider `COc1cccc(N2CCN(C3=Nc4c(F)cccc4[C@H](CC(=O)O)N3c3cc(C(F)(F)F)ccc3OC)CC2)c1` [LETERMOVIR], for which, in the series on Human betaherpesvirus 5, the EC50 turned out to be 4.5 nM and the EC90 turned out to be 6.1 nM. With `O=C(NC1CCN(CCCCC2(C(=O)NCC(F)(F)F)c3ccccc3-c3ccccc32)CC1)c1ccccc1-c1ccc(C(F)(F)F)cc1` [LOMITAPIDE], on Methionine synthase, the concentration for half-maximal inhibition (IC50) is 0.5 nM. Further, the EC50 with HepG2 turned out to be 0.8 nM. In the case of `NC(=O)N1CCC(CC(=O)N2CCC([C@H]3c4ncc(Br)cc4CCc4cc(Cl)cc(Br)c43)CC2)CC1` [LONAFARNIB], the IC50 on GTPase KRas [11] was determined as 40 nM.

In the series on SW-620, `O=C(c1cc(Cc2n[nH]c(=O)c3ccccc23)ccc1F)N1CCN(C(=O)C2CC2)CC1` [OLAPARIB] yielded a half-maximal inhibitory concentration (IC50) of 6 nM. On to `COC(=O)C[C@](O)(CCCC(C)(C)O)C(=O)O[C@@H]1C(OC)=C[C@]23CCCN2CCc2cc4c(cc2[C@H]13)OCO4` [OMACETAXINE MEPESUCCINATE], for which, in the series with K562, the IC50 was 21 nM.

In “cells”, `N#Cc1ccc([C@H]2CCc3cncn32)c(F)c1` [OSILODROSTAT] returned an IC50 of 35 nM. With `CO[C@H]1/C=C/O[C@@]2(C)Oc3c(C)c(O)c4c(O)c(c(/C=N/N5CCN(C)CC5)c(O)c4c3C2=O)NC(=O)/C(C)=C\C=C\[C@H](C)[C@H](O)[C@@H](C)[C@@H](O)[C@@H](C)[C@H](OC(C)=O)[C@@H]1C` [RIFAMPIN], the MIC in series [8] and in series [9] was 0.5 µg/mL (≈ 0.608 µM) in each case. On to `COC(=O)N(C)c1c(N)nc(-c2nn(Cc3ccccc3F)c3ncccc23)nc1N` [RIOCIGUAT], for which the MEC in series [12] turned out to be 0.03 µM. In the series with Aorta, the IC50 was found to be 120 nM. In the case of `Cn1cnc2c(F)c(Nc3ccc(Br)cc3Cl)c(C(=O)NOCCO)cc21` [SELUMETINIB], the half-inhibitory concentration (IC50) in the series on Malme-3M was 59 nM.

Regarding `CC(=O)N[C@@H](CCCNC(=N)N)C(=O)N[C@H]1CSSC[C@@H](C(N)=O)NC(=O)[C@H](Cc2c[nH]c3ccccc23)NC(=O)[C@H](CCCNC(=N)N)NC(=O)[C@@H](Cc2ccccc2)NC(=O)[C@H](Cc2c[nH]cn2)NC(=O)[C@@H](C)NC1=O` [SETMELANOTIDE], the EC50 on Melanocortin receptor 4 is 0.28 nM. `CCOC(=O)[C@@H](N)Cc1ccc(-c2cc(O[C@H](c3ccc(Cl)cc3-n3ccc(C)n3)C(F)(F)F)nc(N)n2)cc1` [TELOTRISTAT ETIPRATE]: in the series with RBL-2H3, the IC50 came out at 400 nM.

Values taken from ChEMBL document CHEMBL5331057, “A decade of approved first-in-class small molecule orphan drugs: Achievements, challenges and perspectives” (Eur J Med Chem, 2022).
